Experimental data reported in ChEMBL document CHEMBL1201862, “PubChem BioAssay data set” (2004).
Calls of active or inactive are those of the source.

Legend:
Streptococcus = test: GAS UMAA2166 growth inhibition – luminescence, BacTiterGlo, counter-screen for streptokinase expression inhibitor project, dose response (AID 1915); assay type: functional, organism-based;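 further: potency for reduction of bacterial viability or growth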
CAAX prenyl protease 2 = target: T1, CAAX prenyl protease 2 (Homo sapiens, UniProt Q9Y256); test: inhibition of Ras-converting CAAX protease Rce1 – biochemical, yeast membranes, quenched-peptide fluorescence, cherry-pick, dose response (AID 588849)
T1 sequence (Q9Y256 whole entry): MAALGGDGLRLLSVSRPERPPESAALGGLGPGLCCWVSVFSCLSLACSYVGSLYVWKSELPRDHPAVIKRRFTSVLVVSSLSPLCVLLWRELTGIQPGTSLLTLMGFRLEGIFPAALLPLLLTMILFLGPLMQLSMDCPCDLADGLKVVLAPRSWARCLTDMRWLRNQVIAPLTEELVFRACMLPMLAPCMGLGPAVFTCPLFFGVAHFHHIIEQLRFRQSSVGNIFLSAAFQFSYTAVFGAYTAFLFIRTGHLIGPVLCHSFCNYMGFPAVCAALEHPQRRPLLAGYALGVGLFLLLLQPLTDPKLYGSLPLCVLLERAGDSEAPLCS

[1] = tested on: Streptococcus sp. 'group A'; test: Streptococcus pyogenes SK(-)GAS viability under kanamycin – luminescence, BacTiterGlo, confirmation, counter-screen for streptokinase expression inhibitor project, dose response (AID 1900); assay type: functional, organism-based
Streptokinase A = target: T2, Streptokinase A (Streptococcus pyogenes serotype M1, UniProt P10520); test: viability-normalized secreted streptokinase activity reduction – plasminogen activation absorbance, OD405, dose response (AID 1914); assay type: functional, Streptococcus pyogenes M1 GAS;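 further: secreted streptokinase activity via plasminogen activation per viability signal from cell pellet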
T2 sequence (P10520 whole entry): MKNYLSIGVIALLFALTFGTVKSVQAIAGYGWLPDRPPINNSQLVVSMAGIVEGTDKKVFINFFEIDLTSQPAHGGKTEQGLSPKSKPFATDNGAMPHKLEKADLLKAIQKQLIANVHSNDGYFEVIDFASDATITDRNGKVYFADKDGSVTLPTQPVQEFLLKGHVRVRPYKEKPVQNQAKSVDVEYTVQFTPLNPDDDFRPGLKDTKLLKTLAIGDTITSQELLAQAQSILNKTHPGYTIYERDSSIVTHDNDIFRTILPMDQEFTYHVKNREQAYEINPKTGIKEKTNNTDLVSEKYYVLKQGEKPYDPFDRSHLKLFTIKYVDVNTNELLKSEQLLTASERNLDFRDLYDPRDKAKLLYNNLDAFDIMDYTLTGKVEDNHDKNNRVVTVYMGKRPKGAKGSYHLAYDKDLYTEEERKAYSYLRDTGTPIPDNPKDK

HEK293 [2] = test: EBV LMP1 TES2 canonical NF-kB signalling blockers – cell-based, HEK293, luciferase, cherry-pick, dose response (AID 588343); assay type: functional; conditions: Homo sapiens
[3] = target: T3, Replicative DNA helicase DnaB (Mycobacterium tuberculosis, UniProt P9WMR3); test: DnaB intein splicing inhibitors, dose response, biochemical, cell-free fluorescence (AID 449749); assay type: functional
T3 sequence (P9WMR3 whole entry): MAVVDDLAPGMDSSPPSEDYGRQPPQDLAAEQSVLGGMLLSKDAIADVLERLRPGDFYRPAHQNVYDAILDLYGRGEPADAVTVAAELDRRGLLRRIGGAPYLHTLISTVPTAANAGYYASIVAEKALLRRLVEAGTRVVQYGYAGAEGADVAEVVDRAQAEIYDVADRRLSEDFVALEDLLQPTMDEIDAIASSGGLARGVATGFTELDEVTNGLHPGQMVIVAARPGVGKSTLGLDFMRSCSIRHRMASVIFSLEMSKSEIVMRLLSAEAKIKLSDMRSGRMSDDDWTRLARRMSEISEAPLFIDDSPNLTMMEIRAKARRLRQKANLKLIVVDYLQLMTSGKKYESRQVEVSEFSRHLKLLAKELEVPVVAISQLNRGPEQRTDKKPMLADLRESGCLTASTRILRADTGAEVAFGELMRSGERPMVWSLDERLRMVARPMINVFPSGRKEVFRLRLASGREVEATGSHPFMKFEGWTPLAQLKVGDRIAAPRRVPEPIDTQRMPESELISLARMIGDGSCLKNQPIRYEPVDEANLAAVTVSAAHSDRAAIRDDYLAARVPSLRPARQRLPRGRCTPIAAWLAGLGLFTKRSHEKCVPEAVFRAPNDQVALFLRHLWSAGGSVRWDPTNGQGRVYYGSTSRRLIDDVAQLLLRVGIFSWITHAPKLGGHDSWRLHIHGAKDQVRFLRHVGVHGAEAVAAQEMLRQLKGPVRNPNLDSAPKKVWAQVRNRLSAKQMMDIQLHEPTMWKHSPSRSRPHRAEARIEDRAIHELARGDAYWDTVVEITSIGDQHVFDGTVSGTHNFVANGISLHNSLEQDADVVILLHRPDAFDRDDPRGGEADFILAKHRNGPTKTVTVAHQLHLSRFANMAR

Protein RecA = target: T4, Protein RecA (Mycobacterium tuberculosis, UniProt P9WHJ3); test: Fluorescence Cell-Free Homogeneous Dose Retest to Identify Inhibitors of RecA-Intein Splicing Activity. [Related pubchem assays (depositor defined):AID2097, AID2223, AID489010, AID492950]; assay type: functional
T4 sequence (P9WHJ3 whole entry): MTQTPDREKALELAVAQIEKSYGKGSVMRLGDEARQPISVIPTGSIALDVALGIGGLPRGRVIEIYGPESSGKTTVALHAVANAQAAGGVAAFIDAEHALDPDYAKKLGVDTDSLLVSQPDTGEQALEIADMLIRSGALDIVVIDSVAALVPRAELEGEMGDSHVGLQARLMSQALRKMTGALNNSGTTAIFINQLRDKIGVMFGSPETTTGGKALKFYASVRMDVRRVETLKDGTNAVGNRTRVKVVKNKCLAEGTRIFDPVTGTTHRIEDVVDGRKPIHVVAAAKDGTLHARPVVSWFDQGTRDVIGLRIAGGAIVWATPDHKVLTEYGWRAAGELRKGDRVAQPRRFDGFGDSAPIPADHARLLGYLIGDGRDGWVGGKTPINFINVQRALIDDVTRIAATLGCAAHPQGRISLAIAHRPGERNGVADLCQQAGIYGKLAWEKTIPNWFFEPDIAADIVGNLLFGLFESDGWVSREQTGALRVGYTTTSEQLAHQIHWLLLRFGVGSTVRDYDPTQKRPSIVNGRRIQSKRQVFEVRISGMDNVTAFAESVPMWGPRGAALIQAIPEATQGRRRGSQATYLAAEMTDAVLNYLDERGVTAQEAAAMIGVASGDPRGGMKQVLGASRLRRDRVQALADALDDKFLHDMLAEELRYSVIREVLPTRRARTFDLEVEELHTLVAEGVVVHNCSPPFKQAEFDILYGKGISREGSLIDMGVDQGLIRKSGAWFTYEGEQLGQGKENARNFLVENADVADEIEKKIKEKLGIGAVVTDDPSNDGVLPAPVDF

[4] = reduction of Shn3 3'UTR-driven luciferase in osteoblasts – cell-based, Clone20 osteoblasts, firefly luciferase, cherry-picked, dose response (AID 624132); assay type: functional;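 further: firefly luciferase luminescence from reporter carrying the Shn3 3'UTR in osteoblasts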
[5] = target: T5, High affinity choline transporter 1 (Homo sapiens, UniProt Q9GZV3); test: human choline transporter blockers, potency – cell-based, 5-point CRC, membrane potential dye, dose response (AID 504840); assay type: functional
T5 sequence (Q9GZV3 whole entry): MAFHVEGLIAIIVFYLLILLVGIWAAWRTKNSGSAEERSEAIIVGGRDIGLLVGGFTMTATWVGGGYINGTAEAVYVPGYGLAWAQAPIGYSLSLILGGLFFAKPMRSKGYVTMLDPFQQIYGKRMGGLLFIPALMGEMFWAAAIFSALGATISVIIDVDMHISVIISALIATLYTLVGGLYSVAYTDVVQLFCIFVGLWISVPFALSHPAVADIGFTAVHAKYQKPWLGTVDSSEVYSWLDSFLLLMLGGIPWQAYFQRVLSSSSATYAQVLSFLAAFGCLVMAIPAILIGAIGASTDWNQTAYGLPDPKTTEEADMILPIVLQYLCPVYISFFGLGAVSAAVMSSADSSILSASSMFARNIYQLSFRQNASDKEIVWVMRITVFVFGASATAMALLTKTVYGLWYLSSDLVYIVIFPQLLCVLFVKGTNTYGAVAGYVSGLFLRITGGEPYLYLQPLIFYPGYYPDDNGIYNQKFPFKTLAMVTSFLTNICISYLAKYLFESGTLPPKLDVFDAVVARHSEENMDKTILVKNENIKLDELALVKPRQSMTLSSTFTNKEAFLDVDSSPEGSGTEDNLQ

[6] = non-specific 3'UTR reporter inhibition in Clone20-Shn3RL – cell-based, Renilla luciferase, cherry-picked, counter-screen for Shn3 inhibitor project, dose response (AID 624133); assay type: functional
[7] = loss of viability in HepG2 cells – cell-based, CellTiter-Glo, cherry-picked, cytotoxicity control for Shn3 inhibitor project, dose response (AID 624134); assay type: functional
INS1 = test: INS-1E survival protection against cytokine death – cell-based, luminescence, retest, dose response (AID 449756); assay type: functional; conditions: Rattus norvegicus;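 further: cell death triggered by IL-1 beta plus TNF-alpha plus IFN-gamma mixture; protective hits raise ATP signal compared with cytokine alone wells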
[8] = target: T6, Nucleotide-binding oligomerization domain-containing protein 1 (Homo sapiens, UniProt Q9Y239); test: blockers of NOD1 pathway activity – revised, SAR follow-up (AID 2333); assay type: functional
T6 sequence (Q9Y239 whole entry): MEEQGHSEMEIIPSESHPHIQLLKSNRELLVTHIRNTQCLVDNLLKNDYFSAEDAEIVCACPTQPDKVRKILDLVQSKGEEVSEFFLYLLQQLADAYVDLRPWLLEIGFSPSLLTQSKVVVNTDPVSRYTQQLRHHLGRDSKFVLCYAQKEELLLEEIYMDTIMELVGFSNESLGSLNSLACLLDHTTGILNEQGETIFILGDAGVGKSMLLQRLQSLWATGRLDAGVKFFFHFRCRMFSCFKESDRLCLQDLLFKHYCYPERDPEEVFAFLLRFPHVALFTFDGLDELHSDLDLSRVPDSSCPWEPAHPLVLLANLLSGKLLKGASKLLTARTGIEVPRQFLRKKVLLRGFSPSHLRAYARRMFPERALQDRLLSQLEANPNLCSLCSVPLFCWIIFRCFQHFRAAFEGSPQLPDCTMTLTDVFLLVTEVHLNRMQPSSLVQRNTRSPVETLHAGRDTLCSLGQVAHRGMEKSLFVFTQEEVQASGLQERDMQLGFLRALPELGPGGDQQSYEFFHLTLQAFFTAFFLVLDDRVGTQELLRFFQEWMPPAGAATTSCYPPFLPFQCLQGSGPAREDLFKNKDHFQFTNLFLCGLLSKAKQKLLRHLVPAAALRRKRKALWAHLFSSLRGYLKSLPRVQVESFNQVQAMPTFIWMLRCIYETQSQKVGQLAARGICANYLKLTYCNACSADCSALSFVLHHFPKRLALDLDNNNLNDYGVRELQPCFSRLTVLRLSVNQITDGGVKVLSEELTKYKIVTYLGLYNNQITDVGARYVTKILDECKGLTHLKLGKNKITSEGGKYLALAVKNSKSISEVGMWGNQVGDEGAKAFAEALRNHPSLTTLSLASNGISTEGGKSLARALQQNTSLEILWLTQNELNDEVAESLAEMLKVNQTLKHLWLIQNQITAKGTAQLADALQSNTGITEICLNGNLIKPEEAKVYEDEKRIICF

Tumor necrosis factor = Tumor necrosis factor (Homo sapiens, UniProt P01375); test: analog potency on TNFa NF-kB signaling – cell-based, revised, SAR follow-up (AID 2337); assay type: functional
HEK293 [9] = test: cells; conditions: Homo sapiens

Tumor necrosis factor, sequence (P01375 whole entry): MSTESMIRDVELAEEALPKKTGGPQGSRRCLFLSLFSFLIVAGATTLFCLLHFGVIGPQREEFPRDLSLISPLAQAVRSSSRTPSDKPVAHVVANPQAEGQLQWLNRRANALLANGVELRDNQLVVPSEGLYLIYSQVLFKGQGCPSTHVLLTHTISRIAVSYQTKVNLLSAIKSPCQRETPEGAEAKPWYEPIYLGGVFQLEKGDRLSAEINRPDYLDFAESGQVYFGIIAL

COc1ccc(-c2oc3ncn(Cc4ccco4)c(=N)c3c2-c2ccc(OC)cc2)cc1
EC50 (Streptococcus): > 150 µM (not active) | AC50 (CAAX prenyl protease 2): 79.2 µM (active) | EC50 [1]: 6.01 µM (active) | EC50 (Streptokinase A): 14.8 µM (active)

Cc1cc(C)n(-c2ccc(NN=C(C#N)C#N)cc2)n1
AC50 (HEK293 [2]): 1.82 µM (active) | AC50 [3]: 5.45 µM (active) | EC50 (Protein RecA): 9.25 µM (active)

CCOC(=O)N1CCC(NC(=O)C2CCCN(Cc3nc(-c4cccc(Cl)c4)oc3C)C2)CC1 (stereo unspecified)
AC50 (HEK293 [2]): 2.51 µM (active) | AC50 [4]: 9.5 µM (active) | IC50 [5]: 6.92 µM (active) | AC50 [6]: 1.81 µM (active) | AC50 [7]: 55.4 µM (active) | AC50 (INS1): 3.71 µM (active)

COc1ccc(-c2nc(CN3CCN(c4ncnc5ccccc45)CC3)c(C)o2)cc1
IC50 [8]: 3.13 µM (active) | IC50 (Tumor necrosis factor): 4.08 µM (active) | IC50 (HEK293 [9]): 11.9 µM (active)
